From PMC8187944, “Discovery of Potent EGFR Inhibitors With 6-Arylureido-4-anilinoquinazoline Derivatives” (Frontiers in Pharmacology, 2021) come the findings set out here.

For orientation: IC50 means the concentration at which inhibition is half-maximal.

In one assay the test system is HT-29 cells. The assay can be described thus: Anti-proliferative assay, standard CCK-8 method. In kind it is cell-based, human. The following applies: Homo sapiens, mean ± SD of at least three independent experiments, read-out: Proliferative inhibition (IC50, μM) HT-29. An excerpt: (§1) All reagents and solvents met the criteria of analytical reagents before use. All cancer cell lines (A549, human non-small-cell lung cell line; HT-29, human colonic adenocarcinoma cell line; MCF-7, human breast cancer cell line) were purchased from Stem Cell Bank, Chinese Academy of Sciences. […] ADP-Glo™ kinase assay kits were provided by Promega (Beijing) Biotech Co., Ltd. (Beijing, China). All kinase subtypes were supplied by SignalChem (BC, Canada).
(§2) The designed 4-anilinoquinazoline derivatives were evaluated for their antitumor bioactivities in vitro against three human tumor cell lines (A549, HT-29, and MCF-7) using the standard CCK-8 method. The CCK-8 method is based on WST-8 dye, 2-(2-methoxy-4-nitrophenyl)-3-(4-nitrophenyl)-5-(2,4-disulfophenyl)-2H-tetrazolium. WST-8 can be bio-reduced by dehydrogenases in mitochondria into orange water-soluble formazan products. Briefly, selected cancer cells in the logarithmic growth phase (1 × 10^4) were inoculated in 96-well plates and further cultured in the incubator for 24 h. First, the target compounds were diluted to different concentrations with culture medium with each dilution gradually diluted from the highest concentration solution. Second, the original culture medium was removed after the cells were completely adherent to the wall, and the compounds at various concentrations prepared above were added. In this experiment, a control group and a blank group were set: the former was treated with 0.1% DMSO solution, and the latter was treated with only the culture medium. […] A microplate reader was adopted to record the absorbance at 450 nm, and in this assay, gefitinib, erlotinib, and sorafenib were used as the reference drugs.
In general terms: Tetrazolium dyes change colour on reduction, which living cells bring about.

For a further assay, the system named is MCF-7 cells. Description: Anti-proliferative assay, standard CCK-8 method. As to conditions: Homo sapiens, MCF7, mean ± SD of at least three independent experiments, read-out: Proliferative inhibition (IC50, μM) MCF-7. Format: cell-based, human.
From the text: as §1, §2

The test system of another assay is A549 cells. Description: Anti-proliferative assay, standard CCK-8 method. As to conditions: Homo sapiens, mean ± SD of at least three independent experiments, read-out: Proliferative inhibition (IC50, μM) A549. Format: cell-based, human.
From the text: as §1, §2

Another assay addresses NIK (Homo sapiens, UniProt Q99558). Description: Kinase spectrum assay (ADP-Glo). As to conditions: remaining enzyme activity at 1 μm compound.

Sequence of NIK (Q99558 whole entry): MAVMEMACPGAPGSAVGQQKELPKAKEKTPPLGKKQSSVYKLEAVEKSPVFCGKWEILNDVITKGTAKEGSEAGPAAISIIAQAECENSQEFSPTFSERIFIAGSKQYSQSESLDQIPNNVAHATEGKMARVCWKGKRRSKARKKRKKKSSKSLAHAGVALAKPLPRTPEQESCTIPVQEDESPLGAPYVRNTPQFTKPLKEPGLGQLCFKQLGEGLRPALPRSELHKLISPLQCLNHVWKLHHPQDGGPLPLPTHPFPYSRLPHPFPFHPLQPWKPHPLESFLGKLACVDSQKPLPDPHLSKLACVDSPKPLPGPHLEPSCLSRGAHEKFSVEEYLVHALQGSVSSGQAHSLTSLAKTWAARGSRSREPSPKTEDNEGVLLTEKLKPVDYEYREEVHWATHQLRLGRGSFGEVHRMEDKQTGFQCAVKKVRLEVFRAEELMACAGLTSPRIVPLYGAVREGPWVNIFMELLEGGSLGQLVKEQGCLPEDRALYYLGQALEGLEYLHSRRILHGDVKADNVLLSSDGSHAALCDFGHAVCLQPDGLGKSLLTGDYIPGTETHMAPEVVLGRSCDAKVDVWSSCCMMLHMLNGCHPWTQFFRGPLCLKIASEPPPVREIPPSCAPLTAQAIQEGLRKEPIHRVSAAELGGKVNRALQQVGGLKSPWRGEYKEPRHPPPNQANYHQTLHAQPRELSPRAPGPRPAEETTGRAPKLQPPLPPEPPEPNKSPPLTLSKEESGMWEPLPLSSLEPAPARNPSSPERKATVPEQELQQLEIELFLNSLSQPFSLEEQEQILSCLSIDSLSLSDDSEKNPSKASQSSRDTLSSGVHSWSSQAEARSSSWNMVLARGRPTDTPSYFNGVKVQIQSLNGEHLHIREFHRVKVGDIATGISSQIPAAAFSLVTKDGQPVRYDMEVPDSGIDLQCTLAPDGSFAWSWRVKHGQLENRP
Experimental for NIK: The ADP-Glo™ kinase detection kit is a luminescence kinase detection approach that detects the amount of ADP produced by the kinase reaction. After ADP is converted into ATP, ATP can be used as the substrate of the luciferase-catalyzed reaction to generate an optical signal, which is positively correlated with kinase activity. […] The above-prepared systems were sealed and incubated at room temperature for 2 h, and 5 μl of ADP-GLO was added to terminate the kinase reaction. Then, the culture plate was sealed and incubated in a thermostatic oscillator for 40 min to fully consume the remaining ATP. The luciferase/luciferin reaction was adopted to determine the newly generated ATP level.

On to `O=C(Nc1ccc(Cl)c(C(F)(F)F)c1)Nc1ccc2ncnc(Nc3cccc(Br)c3)c2c1` [Compound 7i], for which the IC50 with HT-29 cells worked out at 1.72 ± 0.49 µM; in the assay with MCF-7 cells, 2.81 ± 0.09 µM; in the assay with A549 cells, 2.25 ± 0.08 µM. Moreover, at NIK, the “Enzyme activity % NIK” value was determined as 76.97 ± 5.84%.
